A short description of this assay: Inhibition of PLK1 in human MIAPaCa2 cells after 48 hrs by MTT assay. On the technique in general: Tetrazolium dyes change colour on reduction, which living cells bring about.
As for `CC(C)(C)Nc1c(Nc2ccnc(Nc3ccc4c(c3)Cc3ccccc3-4)n2)c(=O)c1=O`, the EC50 was over 30 µM.

For `CC(C)(C)Nc1c(Nc2ccnc(Nc3ccc(-c4cn[nH]c4)cc3)n2)c(=O)c1=O`, the EC50 is 1.61 µM. With `CC(C)(C)Nc1c(Nc2ccnc(Nc3ccc4c(c3)CCO4)n2)c(=O)c1=O`, the half-maximal effective concentration (EC50) came out at 2.86 µM. The result for `CC(C)(C)Nc1c(Nc2ccnc(Nc3ccc4[nH]ncc4c3)n2)c(=O)c1=O` reads 1.47 µM. Then `CC(C)(C)Nc1c(Nc2ccnc(Nc3ccc4c(c3)[nH]c3ccccc34)n2)c(=O)c1=O`, with 5 µM; and `CC(C)(C)Nc1c(Nc2ccnc(Nc3ccc4ncsc4c3)n2)c(=O)c1=O`, with 2.86 µM.

With `CC(C)(C)Nc1c(Nc2ccnc(Nc3ccc(-c4ccccc4)cc3)n2)c(=O)c1=O`, the EC50 was over 30 µM. On to `CC(C)(C)Nc1c(Nc2ccnc(Nc3ccc(-c4ccccn4)cc3)n2)c(=O)c1=O`, for which the EC50 was 8.28 µM.

Take `CC(=O)N1CCc2cc(Nc3nccc(Nc4c(NC(C)(C)C)c(=O)c4=O)n3)ccc21`: the midpoint of the response, the EC50, lay at 1.47 µM. Against the preceding compound, the EC50 is about 5.6-fold lower.

In turn, `CC(C)(C)Nc1c(Nc2ccnc(Nc3ccc(-c4csnn4)cc3)n2)c(=O)c1=O` yielded an EC50 of 8.32 µM. Then `CC(C)(C)Nc1c(Nc2ccnc(Nc3ccc(-c4cccnc4)cc3)n2)c(=O)c1=O`, with 2.55 µM; and `CC(C)(C)Nc1c(Nc2ccnc(Nc3ccc(-c4ccncc4)cc3)n2)c(=O)c1=O`, with 1.05 µM. With `CC(C)(C)Nc1c(Nc2ccnc(Nc3ccc(N4CCOCC4)cc3)n2)c(=O)c1=O`, it took 8.89 µM to reach a half-maximal effect (EC50).

In general, EC50 refers to the concentration needed to bring the measured effect to its halfway point. A lower EC50 goes with an effect from little substance.

These data come from BindingDB's records for doi:10.1016/j.bmcl.2012.10.009 (Abbott Laboratories, 2012).
